According to PubChem BioAssay (NCI):
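How tested: cells in 96-well plates exposed to compound for 48 hours at five concentrations. Abbreviation: GI50, concentration required for 50% inhibition of growth. TGI: concentration producing complete growth inhibition.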

What was measured:
Experiment in all cases: growth of human tumour cells (NCI), 48 h
SR leukemia = tested on: SR leukemia
SF-295 CNS = tested on: SF-295 CNS
MDA-MB-435 = tested on: MDA-MB-435
HCT-15 colon = tested on: HCT-15 colon
OVCAR-5 ovarian = tested on: OVCAR-5 ovarian
UACC-62 melanoma = tested on: UACC-62 melanoma
NCI-H460 lung = tested on: NCI-H460 lung
KM12 colon = tested on: KM12 colon
SN12C renal = tested on: SN12C renal
SF-268 CNS = tested on: SF-268 CNS
MCF7 breast = tested on: MCF7 breast
MOLT-4 leukemia = tested on: MOLT-4 leukemia
UO-31 renal = tested on: UO-31 renal
SW-620 colon = tested on: SW-620 colon
OVCAR-8 ovarian = tested on: OVCAR-8 ovarian
DU-145 prostate = tested on: DU-145 prostate
TK-10 renal = tested on: TK-10 renal
786-0 renal = tested on: 786-0 renal
SNB-19 CNS = tested on: SNB-19 CNS
SK-MEL-5 melanoma = tested on: SK-MEL-5 melanoma
UACC-257 melanoma = tested on: UACC-257 melanoma
PC-3 prostate = tested on: PC-3 prostate
HT29 colon = tested on: HT29 colon
SF-539 CNS = tested on: SF-539 CNS
NCI-H522 lung = tested on: NCI-H522 lung
OVCAR-3 ovarian = tested on: OVCAR-3 ovarian
CCRF-CEM leukemia = tested on: CCRF-CEM leukemia
IGROV1 ovarian = tested on: IGROV1 ovarian
T-47D breast = tested on: T-47D breast
EKVX NSCLC = tested on: EKVX NSCLC
M14 melanoma = tested on: M14 melanoma
RPMI-8226 leukemia = tested on: RPMI-8226 leukemia
SK-MEL-2 melanoma = tested on: SK-MEL-2 melanoma
ACHN renal = tested on: ACHN renal
LOX IMVI melanoma = tested on: LOX IMVI melanoma
HCC-2998 colon = tested on: HCC-2998 colon
HS 578T breast = tested on: HS 578T breast
NCI-H23 lung = tested on: NCI-H23 lung
SNB-75 CNS = tested on: SNB-75 CNS
HCT-116 colon = tested on: HCT-116 colon
SK-MEL-28 melanoma = tested on: SK-MEL-28 melanoma
A549 NSCLC = tested on: A549 NSCLC
NCI/ADR-RES ovarian = tested on: NCI/ADR-RES ovarian
HOP-62 NSCLC = tested on: HOP-62 NSCLC
SK-OV-3 ovarian = tested on: SK-OV-3 ovarian
NCI-H226 lung = tested on: NCI-H226 lung
MALME-3M melanoma = tested on: MALME-3M melanoma
CAKI-1 renal = tested on: CAKI-1 renal
COLO 205 colon = tested on: COLO 205 colon
K-562 leukemia = tested on: K-562 leukemia
HOP-92 NSCLC = tested on: HOP-92 NSCLC
MDA-MB-231 breast = tested on: MDA-MB-231 breast
U251 CNS = tested on: U251 CNS
A498 renal = tested on: A498 renal
OVCAR-4 ovarian = tested on: OVCAR-4 ovarian
HL-60(TB) leukemia = tested on: HL-60(TB) leukemia
RXF 393 renal = tested on: RXF 393 renal

SMILES: CC(C)(C)c1cc(C#N)cc(Br)c1OP(=O)(Oc1c(Br)cc(C#N)cc1C(C)(C)C)c1ccccc1
- GI50 (SR leukemia): 10.5 µM

SMILES: O=C1OC(OCC#CCOC2OC(=O)C(Cl)=C2Cl)C(Cl)=C1Cl (stereo unspecified)
- TGI (SF-295 CNS): 60.4 µM
- TGI (MDA-MB-435): 27.2 µM
- TGI (HCT-15 colon): 27.3 µM
- TGI (OVCAR-5 ovarian): 33.2 µM
- TGI (UACC-62 melanoma): 38.3 µM
- TGI (NCI-H460 lung): 58.9 µM
- TGI (KM12 colon): 39.3 µM
- TGI (SN12C renal): 32.5 µM
- TGI (SF-268 CNS): 46.8 µM
- TGI (MCF7 breast): 21.8 µM
- TGI (MOLT-4 leukemia): 6.17 µM
- TGI (UO-31 renal): 24 µM
- TGI (SW-620 colon): 18.4 µM
- TGI (OVCAR-8 ovarian): 20.8 µM
- TGI (DU-145 prostate): 38.2 µM
- TGI (TK-10 renal): 21.8 µM
- TGI (786-0 renal): 16.8 µM
- TGI (SNB-19 CNS): 42.5 µM
- TGI (SK-MEL-5 melanoma): 43.4 µM
- TGI (UACC-257 melanoma): 32.3 µM
- TGI (PC-3 prostate): 27.1 µM
- TGI (HT29 colon): 18.1 µM
- TGI (SF-539 CNS): 31.8 µM
- TGI (NCI-H522 lung): 3.72 µM
- TGI (OVCAR-3 ovarian): 30.7 µM
- TGI (CCRF-CEM leukemia): 4.63 µM
- TGI (IGROV1 ovarian): 29.9 µM
- TGI (T-47D breast): 36.7 µM
- TGI (EKVX NSCLC): 40.1 µM
- TGI (M14 melanoma): 23.9 µM
- TGI (RPMI-8226 leukemia): 11.9 µM
- TGI (SK-MEL-2 melanoma): 32.2 µM
- TGI (ACHN renal): 30.5 µM
- TGI (SR leukemia): 4.99 µM
- TGI (LOX IMVI melanoma): 11.1 µM
- TGI (HCC-2998 colon): 14.3 µM
- TGI (HS 578T breast): 50.5 µM
- TGI (NCI-H23 lung): 40.9 µM
- TGI (SNB-75 CNS): 28.4 µM
- TGI (HCT-116 colon): 21.8 µM
- TGI (SK-MEL-28 melanoma): 30.1 µM
- TGI (A549 NSCLC): 38.9 µM
- TGI (NCI/ADR-RES ovarian): 75.3 µM
- TGI (HOP-62 NSCLC): 26.7 µM

SMILES: O=S(=O)(NCCNc1nccc(-c2c(-c3ccc(F)cc3)nc3sccn23)n1)c1ccccc1
- GI50 (SF-295 CNS): 7.64 µM
- TGI (SF-295 CNS): 34.2 µM
- GI50 (MDA-MB-435): 2.56 µM
- TGI (MDA-MB-435): > 100 µM
- GI50 (SK-OV-3 ovarian): 10.8 µM
- TGI (SK-OV-3 ovarian): > 100 µM
- GI50 (HCT-15 colon): 3.07 µM
- TGI (HCT-15 colon): > 100 µM
- GI50 (NCI-H226 lung): 7.73 µM
- TGI (NCI-H226 lung): > 100 µM
- GI50 (OVCAR-5 ovarian): 81.1 µM
- TGI (OVCAR-5 ovarian): > 100 µM
- GI50 (UACC-62 melanoma): 5.13 µM
- TGI (UACC-62 melanoma): 23.2 µM
- GI50 (NCI-H460 lung): 2.72 µM
- TGI (NCI-H460 lung): > 100 µM
- GI50 (KM12 colon): 4.12 µM
- TGI (KM12 colon): 68.3 µM
- GI50 (SN12C renal): 6.86 µM
- TGI (SN12C renal): > 100 µM
- GI50 (MALME-3M melanoma): 5.82 µM
- TGI (MALME-3M melanoma): 51.1 µM
- GI50 (CAKI-1 renal): 3.24 µM
- TGI (CAKI-1 renal): > 100 µM
- GI50 (SF-268 CNS): 6.63 µM
- TGI (SF-268 CNS): > 100 µM
- GI50 (COLO 205 colon): 2.23 µM
- TGI (COLO 205 colon): > 100 µM
- GI50 (K-562 leukemia): 4.35 µM
- TGI (K-562 leukemia): > 100 µM
- GI50 (HOP-92 NSCLC): 1.34 µM
- TGI (HOP-92 NSCLC): 8.14 µM
- GI50 (MCF7 breast): 0.722 µM
- TGI (MCF7 breast): > 100 µM
- GI50 (MOLT-4 leukemia): 4.84 µM
- TGI (MOLT-4 leukemia): 57.5 µM
- GI50 (UO-31 renal): 1.83 µM
- TGI (UO-31 renal): 39.8 µM
- GI50 (MDA-MB-231 breast): 16.6 µM
- TGI (MDA-MB-231 breast): > 100 µM
- GI50 (SW-620 colon): 6.55 µM
- TGI (SW-620 colon): > 100 µM
- GI50 (OVCAR-8 ovarian): 4.17 µM
- TGI (OVCAR-8 ovarian): > 100 µM
- GI50 (DU-145 prostate): 5.14 µM
- TGI (DU-145 prostate): > 100 µM
- GI50 (TK-10 renal): 9.41 µM
- TGI (TK-10 renal): 73.5 µM
- GI50 (786-0 renal): 4.77 µM
- TGI (786-0 renal): > 100 µM
- GI50 (SNB-19 CNS): 9.88 µM
- TGI (SNB-19 CNS): > 100 µM
- GI50 (SK-MEL-5 melanoma): 2.45 µM
- TGI (SK-MEL-5 melanoma): 13.7 µM
- GI50 (UACC-257 melanoma): 10.6 µM
- TGI (UACC-257 melanoma): 72.8 µM
- GI50 (PC-3 prostate): 4 µM
- TGI (PC-3 prostate): 78.8 µM
- GI50 (U251 CNS): 6.45 µM
- TGI (U251 CNS): 26.9 µM
- GI50 (A498 renal): 5.23 µM
- TGI (A498 renal): > 100 µM
- GI50 (HT29 colon): 2.31 µM
- TGI (HT29 colon): > 100 µM
- GI50 (SF-539 CNS): 19 µM
- TGI (SF-539 CNS): > 100 µM
- GI50 (OVCAR-3 ovarian): 11.3 µM
- TGI (OVCAR-3 ovarian): 76 µM
- GI50 (OVCAR-4 ovarian): 5.6 µM
- TGI (OVCAR-4 ovarian): > 100 µM
- GI50 (CCRF-CEM leukemia): 3.5 µM
- TGI (CCRF-CEM leukemia): > 100 µM
- GI50 (IGROV1 ovarian): 2.99 µM
- TGI (IGROV1 ovarian): 32.7 µM
- GI50 (T-47D breast): 1.79 µM
- TGI (T-47D breast): 27.3 µM
- GI50 (HL-60(TB) leukemia): 16.9 µM
- TGI (HL-60(TB) leukemia): 61.7 µM
- GI50 (M14 melanoma): 4.94 µM
- TGI (M14 melanoma): > 100 µM
- GI50 (RPMI-8226 leukemia): 3.79 µM
- TGI (RPMI-8226 leukemia): 33 µM
- GI50 (SK-MEL-2 melanoma): 7.5 µM
- TGI (SK-MEL-2 melanoma): 26.6 µM
- GI50 (ACHN renal): 1.69 µM
- TGI (ACHN renal): > 100 µM
- GI50 (SR leukemia): 3.46 µM
- TGI (SR leukemia): > 100 µM
- GI50 (LOX IMVI melanoma): 3.41 µM
- TGI (LOX IMVI melanoma): 93.1 µM
- GI50 (HCC-2998 colon): 22.4 µM
- TGI (HCC-2998 colon): > 100 µM
- GI50 (HS 578T breast): 13.6 µM
- TGI (HS 578T breast): > 100 µM
- GI50 (NCI-H23 lung): 16.2 µM
- TGI (NCI-H23 lung): > 100 µM
- GI50 (SNB-75 CNS): 1.61 µM
- TGI (SNB-75 CNS): 56.2 µM
- GI50 (HCT-116 colon): 2.36 µM
- TGI (HCT-116 colon): 14.9 µM
- GI50 (SK-MEL-28 melanoma): 9.36 µM
- TGI (SK-MEL-28 melanoma): > 100 µM
- GI50 (A549 NSCLC): 1.93 µM
- TGI (A549 NSCLC): > 100 µM
- GI50 (NCI/ADR-RES ovarian): 5.6 µM
- TGI (NCI/ADR-RES ovarian): > 100 µM
- GI50 (HOP-62 NSCLC): 26.4 µM
- TGI (HOP-62 NSCLC): > 100 µM

SMILES: ClCC[N+]12CC[N+](CCCl)(CC1)C2 (tested in a mixture with another compound)
- GI50 (SK-MEL-2 melanoma): 43.2 µM
- GI50 (RXF 393 renal): 85.4 µM
- GI50 (SNB-75 CNS): 58.6 µM
